Test results from patent US4820694A, “Modifications of 3-O-demethylmycinose in macrocin and lactenocin” (priority 1986, dated 1989).
Converted amounts (≈) assume the structure as drawn. Where two headings read alike, the source gives them in different places.

Legend:
[1] = test system: Streptococcus pneumoniae Park I; assay: microbe, parasite or virus in culture; type: cell-based; conditions: Streptococcus pneumoniae
Procedure: (§1) The MIC's in Table III were determined by standard agar-dilution assays. The MIC's in Table IV were obtained using conventional brothdilution microtiter tests.

[2] = test system: Staphylococcus aureus S13E; assay: microbe, parasite or virus in culture; type: cell-based; conditions: Staphylococcus aureus, S13E
Procedure: as §1

[3] = test system: Streptococcus pyogenes C203; assay: protection of mice experimentally infected with S. pyogenes C203; type: in vivo; conditions: mice, mg/kg × 2, doses given 1 and 4 hours postinfection, read-out: ED50
Procedure: The formula 1 compounds have shown in vivo antimicrobial activity against experimentally-induced infections in laboratory animals. When two doses of test compound were administered to mice experimentally infected with S. pyrogenes C203, the activity observed was measured as an ED50 value [effective dose in mg/kg to protect 50% of the test animals: see Warren Wick, et al., J. Bacteriol. 81, 233-235 (1961)].
^a mg/kg × 2; doses given 1 and 4 hours postinfection

[4] = test system: Streptococcus pyogenes C203; assay: standard agar-dilution MIC assay; type: cell-based; conditions: Streptococcus pyogenes, C203
Procedure: as §1

[5] = test system: Haemophilus influenzae 76; assay: standard agar-dilution MIC assay; type: cell-based; conditions: Haemophilus influenzae, 76
Procedure: as §1

[6] = test system: Pseudomonas aeruginosa X239; assay: standard agar-dilution MIC assay; type: cell-based; conditions: Pseudomonas aeruginosa, X239; agar-dilution; read-out: MIC
Procedure: as §1

[7] = test system: Streptococcus Group D 9960; assay: standard agar-dilution MIC assay; type: cell-based; conditions: GROUPD9960, read-out: MIC
Procedure: as §1

[8] = test system: Klebsiella pneumoniae X68; assay: standard agar-dilution MIC assay; type: cell-based; conditions: Klebsiella pneumoniae, X68; agar-dilution; read-out: MIC
Procedure: as §1

[9] = test system: Haemophilus influenzae C.L.; assay: standard agar-dilution MIC assay; type: cell-based; conditions: Haemophilus influenzae
Procedure: as §1

[10] = test system: Staphylococcus epidermidis EPI1; assay: standard agar-dilution MIC assay; type: cell-based; conditions: Staphylococcus epidermidis, EPI1
Procedure: as §1

[11] = test system: Staphylococcus aureus X400; assay: standard agar-dilution MIC assay; type: cell-based; conditions: Staphylococcus aureus, X400
Procedure: as §1

[12] = test system: Staphylococcus aureus V41; assay: standard agar-dilution MIC assay; type: cell-based; conditions: Staphylococcus aureus, V41
Procedure: as §1

[13] = test system: Staphylococcus aureus X1.1; assay: standard agar-dilution MIC assay; type: cell-based; conditions: Staphylococcus aureus, X1.1
Procedure: as §1

[14] = test system: Escherichia coli EC14; assay: standard agar-dilution MIC assay; type: cell-based; conditions: agar-dilution, read-out: MIC
Procedure: as §1

[15] = test system: Streptococcus Group D X66; assay: standard agar-dilution MIC assay; type: cell-based; conditions: read-out: MIC
Procedure: as §1

[16] = test system: Mycoplasma hyorhinis 29E; assay: broth-dilution microtiter MIC test; type: cell-based; conditions: Mycoplasma, 29E
Procedure: as §1

[17] = test system: Pasteurella multocida 60A; assay: broth-dilution microtiter MIC test; type: cell-based; conditions: Pasteurella multocida, 60A
Procedure: as §1

[18] = test system: Mycoplasma gallisepticum 29C; assay: broth-dilution microtiter MIC test; type: cell-based; conditions: Mycoplasmoides gallisepticum, 29C
Procedure: as §1

[19] = test system: Staphylococcus aureus 19C; assay: broth-dilution microtiter MIC test; type: cell-based; conditions: Staphylococcus aureus, 19C
Procedure: as §1

[20] = test system: Pasteurella multocida 40G; assay: broth-dilution microtiter MIC test; type: cell-based; conditions: Pasteurella multocida, 40G
Procedure: as §1

[21] = test system: Pasteurella multocida 68C; assay: broth-dilution microtiter MIC test; type: cell-based; conditions: Pasteurella multocida, 68C
Procedure: as §1

[22] = test system: Pasteurella hemolytica 41D; assay: broth-dilution microtiter MIC test; type: cell-based; conditions: Pasteurella, 41D
Procedure: as §1

[23] = test system: Mycoplasma synoviae 40A; assay: broth-dilution microtiter MIC test; type: cell-based; conditions: Mycoplasmopsis synoviae, 40A
Procedure: as §1

[24] = test system: Mycoplasma gallisepticum 15E; assay: broth-dilution microtiter MIC test; type: cell-based; conditions: Mycoplasmoides gallisepticum, 15E
Procedure: as §1

[25] = test system: Pasteurella hemolytica 22C; assay: broth-dilution microtiter MIC test; type: cell-based; conditions: Pasteurella, 22C
Procedure: as §1

[26] = test system: Pasteurella multocida 22A; assay: broth-dilution microtiter MIC test; type: cell-based; conditions: Pasteurella multocida, 22A
Procedure: as §1

[27] = test system: Pasteurella multocida 17E; assay: broth-dilution microtiter MIC test; type: cell-based; conditions: Pasteurella multocida, 17E
Procedure: as §1

[28] = test system: Mycoplasma gallisepticum 36H; assay: broth-dilution microtiter MIC test; type: cell-based; conditions: Mycoplasmoides gallisepticum, 36H
Procedure: as §1

[29] = test system: Bordetella bronchiseptica; assay: broth-dilution microtiter MIC test; type: cell-based; conditions: Bordetella bronchiseptica; broth-dilution microtiter; read-out: MIC
Procedure: as §1

[30] = test system: Streptococcus sp. 19F; assay: broth-dilution microtiter MIC test; type: cell-based; conditions: Streptococcus, SP.19F
Procedure: as §1

[31] = test system: Pasteurella hemolytica 23C; assay: broth-dilution microtiter MIC test; type: cell-based; conditions: Pasteurella, 23C
Procedure: as §1

Row | Compound | MIC [2] | MIC [4] | MIC [5] | MIC [6] | MIC [7] | MIC [8] | MIC [9] | MIC [10] | MIC [11] | MIC [12] | MIC [13] | MIC [14] | MIC [15] | MIC [16] | MIC [17] | MIC [18] | MIC [19] | MIC [20] | MIC [21] | MIC [22] | also measured
1 | CCC1OC(=O)CC(O)C(C)C(OC2OC(C)C(O)C(N(C)C)C2O)C(CC=O)CC(C)C(=O)C=CC(C)=CC1COC1OC(C)C(OC(=O)CC(C)C)C(O)C1OC (centres unmarked) [Compound 26, 4"-O-Isovaleryl-lactenocin] | 1 mg/L (≈ 1.19 µM) | 0.5 mg/L (≈ 0.594 µM) | 8 mg/L (≈ 9.5 µM) | > 128 mg/L | 1 mg/L (≈ 1.19 µM) | > 128 mg/L | 8 mg/L (≈ 9.5 µM) | 1 mg/L (≈ 1.19 µM) | 2 mg/L (≈ 2.38 µM) | 1 mg/L (≈ 1.19 µM) | 1 mg/L (≈ 1.19 µM) | > 128 mg/L | 1 mg/L (≈ 1.19 µM) | 1.56 mg/L (≈ 1.85 µM) | 25 mg/L (≈ 29.7 µM) | 1.56 mg/L (≈ 1.85 µM) | 3.12 mg/L (≈ 3.71 µM) | 25 mg/L (≈ 29.7 µM) | 12.5 mg/L (≈ 14.8 µM) | 50 mg/L (≈ 59.4 µM) | MIC [1]: 0.25 mg/L (≈ 0.297 µM); ED50 ([3]; C203, Oral): > 25 mg/kg; ED50 ([3]; C203, sc, Subcutaneous): 5.37 mg/kg; MIC [23]: 3.12 mg/L (≈ 3.71 µM); MIC [24]: 50 mg/L (≈ 59.4 µM); MIC [25]: 50 mg/L (≈ 59.4 µM); MIC [26]: 25 mg/L (≈ 29.7 µM); MIC [27]: 25 mg/L (≈ 29.7 µM); MIC [28]: 50 mg/L (≈ 59.4 µM); MIC [29]: > 50 mg/L; MIC [30]: 1.56 mg/L (≈ 1.85 µM); MIC [31]: 25 mg/L (≈ 29.7 µM)
2 | CCC1OC(=O)CC(O)C(C)C(OC2OC(C)C(O)C(N(C)C)C2OC(C)=O)C(CC=O)CC(C)C(=O)C=CC(C)=CC1COC1OC(C)C(OC(C)=O)C(OC(=O)COc2ccccc2)C1OC (centres unmarked) [Compound 37, 2',4"-Di-O-acetyl-3"-O-phenoxyacetyllactenocin] | 1 mg/L (≈ 1.02 µM) | 0.5 mg/L (≈ 0.512 µM) | 4 mg/L (≈ 4.1 µM) | > 128 mg/L | 2 mg/L (≈ 2.05 µM) | > 128 mg/L | 16 mg/L (≈ 16.4 µM) | 1 mg/L (≈ 1.02 µM) | 2 mg/L (≈ 2.05 µM) | 1 mg/L (≈ 1.02 µM) | 1 mg/L (≈ 1.02 µM) | > 128 mg/L | 1 mg/L (≈ 1.02 µM) | 6.25 mg/L (≈ 6.4 µM) | 25 mg/L (≈ 25.6 µM) | 0.195 mg/L (≈ 0.2 µM) | 1.56 mg/L (≈ 1.6 µM) | 25 mg/L (≈ 25.6 µM) | 12.5 mg/L (≈ 12.8 µM) | 25 mg/L (≈ 25.6 µM) | MIC ([1]; agar-dilution, read-out: MIC): 0.12 mg/L (≈ 0.123 µM); MIC [23]: 0.78 mg/L (≈ 0.799 µM); MIC [24]: 6.25 mg/L (≈ 6.4 µM); MIC [25]: 25 mg/L (≈ 25.6 µM); MIC [26]: 25 mg/L (≈ 25.6 µM); MIC [27]: 25 mg/L (≈ 25.6 µM); MIC [28]: 12.5 mg/L (≈ 12.8 µM); MIC [29]: > 50 mg/L; MIC [30]: 0.78 mg/L (≈ 0.799 µM); MIC [31]: 25 mg/L (≈ 25.6 µM)
3 | CCC1OC(=O)CC(O)C(C)C(OC2OC(C)C(O)C(N(C)C)C2O)C(CC=O)CC(C)C(=O)C=CC(C)=CC1COC1OC(C)C(OC(C)=O)C(OC(=O)COc2ccccc2)C1OC (centres unmarked) [Compound 38, 4"-O-Acetyl-3"-O-phenoxyacetyl-lactenocin] | 1 mg/L (≈ 1.07 µM) | 0.5 mg/L (≈ 0.535 µM) | 8 mg/L (≈ 8.56 µM) | > 128 mg/L | 2 mg/L (≈ 2.14 µM) | > 128 mg/L | 16 mg/L (≈ 17.1 µM) | 1 mg/L (≈ 1.07 µM) | 2 mg/L (≈ 2.14 µM) | 1 mg/L (≈ 1.07 µM) | 1 mg/L (≈ 1.07 µM) | > 128 mg/L | 2 mg/L (≈ 2.14 µM) | 12.5 mg/L (≈ 13.4 µM) | 12.5 mg/L (≈ 13.4 µM) | 0.39 mg/L (≈ 0.418 µM) | 3.12 mg/L (≈ 3.34 µM) | 25 mg/L (≈ 26.8 µM) | 12.5 mg/L (≈ 13.4 µM) | 50 mg/L (≈ 53.5 µM) | MIC [1]: 0.25 mg/L (≈ 0.268 µM); MIC [23]: 0.78 mg/L (≈ 0.835 µM); MIC [24]: 25 mg/L (≈ 26.8 µM); MIC [25]: 25 mg/L (≈ 26.8 µM); MIC [26]: 25 mg/L (≈ 26.8 µM); MIC [27]: 25 mg/L (≈ 26.8 µM); MIC [28]: 12.5 mg/L (≈ 13.4 µM); MIC [29]: > 50 mg/L; MIC [30]: 0.78 mg/L (≈ 0.835 µM); MIC [31]: 25 mg/L (≈ 26.8 µM)
